Measurements: patent US11524966B1 (Valo Early Discovery, Inc., priority 2017, dated 2022)

biological target: T1, USP28 (His-tagged USP28-FL-mammalian) (Homo sapiens, UniProt Q96RU2); experiment: Ubiquitin-Rhodamine 110 Assay for USP28 Activity, Example A-1(a); type: biochemical; conditions: Ubiquitin-Rhodamine 110 assay, Example A-1(a); read-out: USP28 A-1(a) IC50 range
T1 construct: Expression of USP28 (1-1077)-TEV-6*His (pTT5 vector); made in house; host or cells: Expi293f cells (pTT5 vector)
T1 sequence (Q96RU2 1-1077): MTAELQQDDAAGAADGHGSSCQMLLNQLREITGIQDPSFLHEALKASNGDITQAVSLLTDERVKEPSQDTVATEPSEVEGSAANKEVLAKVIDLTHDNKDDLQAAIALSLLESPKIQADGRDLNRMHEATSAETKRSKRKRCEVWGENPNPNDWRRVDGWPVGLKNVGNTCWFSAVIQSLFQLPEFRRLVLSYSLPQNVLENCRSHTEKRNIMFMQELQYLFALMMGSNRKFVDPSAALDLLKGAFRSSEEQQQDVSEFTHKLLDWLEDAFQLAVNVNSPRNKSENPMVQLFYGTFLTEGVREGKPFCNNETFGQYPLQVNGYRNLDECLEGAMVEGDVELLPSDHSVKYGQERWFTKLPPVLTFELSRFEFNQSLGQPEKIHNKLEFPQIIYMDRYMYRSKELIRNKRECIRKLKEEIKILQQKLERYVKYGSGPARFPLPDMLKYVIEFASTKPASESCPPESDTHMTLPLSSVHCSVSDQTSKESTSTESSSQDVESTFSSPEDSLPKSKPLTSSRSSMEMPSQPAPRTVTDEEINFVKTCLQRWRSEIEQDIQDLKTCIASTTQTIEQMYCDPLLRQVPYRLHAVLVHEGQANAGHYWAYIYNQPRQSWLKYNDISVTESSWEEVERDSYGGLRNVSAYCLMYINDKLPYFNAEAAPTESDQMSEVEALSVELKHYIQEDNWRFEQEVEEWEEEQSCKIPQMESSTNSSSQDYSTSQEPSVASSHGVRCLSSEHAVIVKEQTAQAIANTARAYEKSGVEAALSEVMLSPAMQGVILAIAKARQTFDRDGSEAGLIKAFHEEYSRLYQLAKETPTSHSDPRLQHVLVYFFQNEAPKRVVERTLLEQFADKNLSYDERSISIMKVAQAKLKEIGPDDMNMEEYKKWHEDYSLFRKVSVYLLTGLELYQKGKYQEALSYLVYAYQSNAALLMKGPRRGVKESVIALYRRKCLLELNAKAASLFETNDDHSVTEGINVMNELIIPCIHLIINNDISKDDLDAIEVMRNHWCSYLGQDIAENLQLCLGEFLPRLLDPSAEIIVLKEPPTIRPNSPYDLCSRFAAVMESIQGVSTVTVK
How it was run: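 Full-length His-tagged USP28 (1-1077, Expi293F-expressed; […]) was preincubated 30 min with compound (25 μM–1.3 nM, 10-point 3-fold) in 20 mM Tris-HCl pH 8.0, 3 mM BME, 0.03% BGG, 0.01% Triton X-100. Ub-Rh110 (25 nM) was then added for 45 min at room temperature, stopped with citric acid, and read by fluorescence (485/535 nm).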

| Structure (SMILES) | IC50 [nM] |
| --- | --- |
| Cc1ccc2c(N)c(C(=O)N[C@H]3CCc4nc(N5CCNCC5)ccc4C3)sc2n1 (single isomer, unassigned) [Example 23-7] | 1 to 50 |
| Cc1ccc2c(N)c(C(=O)N[C@@H]3CCc4nc(N5CCNCC5)ccc4C3)sc2n1 (single isomer, unassigned) [Example 23-8] | 50 to 200 |
| Cc1ccc2c(N)c(C(=O)N[C@H]3CCc4nc(N5CCN[C@@H](C)C5)ccc4C3)sc2n1 (single isomer, unassigned) [Example 23-15] | 1 to 50 |
| Cc1ccc2c(N)c(C(=O)N[C@H]3CCc4nc(N5CCN[C@H](C)C5)ccc4C3)sc2n1 (single isomer, unassigned) [Example 23-16] | 1 to 50 |
| COC[C@@H]1CN(c2ccc3c(n2)CC[C@H](NC(=O)c2sc4nc(C)ccc4c2N)C3)C[C@@H]1N (single isomer, unassigned) [Example 24-1] | 50 to 200 |
| COC[C@H]1CN(c2ccc3c(n2)CC[C@H](NC(=O)c2sc4nc(C)ccc4c2N)C3)C[C@H]1N (single isomer, unassigned) [Example 24-2] | 50 to 200 |
| Cc1ccc2c(N)c(C(=O)N[C@H]3CCc4nc(N5CCNCC5)c(F)cc4C3)sc2n1 (single isomer, unassigned) [Example 30-1] | 1 to 50 |
| Cc1ccc2c(N)c(C(=O)N[C@@H]3CCc4nc(N5CCNCC5)c(F)cc4C3)sc2n1 (single isomer, unassigned) [Example 30-2] | 200 to 2000 |
| Cc1ccc2c(N)c(C(=O)N[C@@H]3Cc4ccc(N5CCNCC5)nc4C4(CC4)C3)sc2n1 (single isomer, unassigned) [Example 31-3, 3-amino-6-methyl-N-[(6′S)-2-(piperazin-1-yl)-6′,7′-dihydro-5′H-spiro[cyclopropane-1,8′-quinoline]-6′-yl]thieno[2,3-b]pyridine-2-carboxamide] | 50 to 200 |
| Cc1ccc2c(N)c(C(=O)N[C@H]3Cc4ccc(N5CCNCC5)nc4C4(CC4)C3)sc2n1 (single isomer, unassigned) [Example 31-4, 3-amino-6-methyl-N-[(6′R)-2′-(piperazin-1-yl)-6′,7′-dihydro-5′H-spiro[cyclopropane-1,8′-quinoline]-6′-yl]thieno[2,3-b]pyridine-2-carboxamide] | 1 to 50 |
| Cc1ccc2c(N)c(C(=O)N[C@H]3COc4cc(N5C[C@@H]6CCNC[C@@H]65)ccc4C3)sc2n1 (single isomer, unassigned) [Example 33-3] | 1 to 50 |
| Cc1ccc2c(N)c(C(=O)N[C@H]3COc4cc(N5C[C@H]6CCNC[C@H]65)ccc4C3)sc2n1 (single isomer, unassigned) [Example 33-4] | 1 to 50 |
| Cc1cnc2c(N)c(C(=O)N[C@H]3COc4cc(N5CC6CCC(C5)N6)c(F)cc4C3)sc2n1 (single isomer, unassigned) [Example 40] | 1 to 50 |
| Cc1cnc2c(N)c(C(=O)N[C@@H]3COc4cc(N5CC6CCC(C5)N6)c(F)cc4C3)sc2n1 (single isomer, unassigned) [Example 41] | 200 to 2000 |
| Cc1nc2sc(C(=O)N[C@H]3CCc4nc(N5CCNCC5)ccc4C3)c(N)c2s1 [Example 23-9] | 50 to 200 |
| Cc1ccc2c(N)c(C(=O)N[C@H]3CCc4nc(N5CC6CC(C5)N6)ccc4C3)sc2n1 [Example 23-10, 3-amino-N-[(6S)-2-{3,6-diazabicyclo[3.1.1]heptan-3-yl}-5,6,7,8-tetrahydroquinolin-6-yl]-6-methylthieno[2,3-b]pyridine-2-carboxamide] | 200 to 2000 |
| Cc1cnc2c(N)c(C(=O)N[C@H]3CCc4nc(N5CC6CC(C5)N6)ccc4C3)sc2n1 [Example 23-11, 7-amino-N-[(6S)-2-{3,6-diazabicyclo[3.1.1]heptan-3-yl}-5,6,7,8-tetrahydroquinolin-6-yl]-3-methylthieno[2,3-b]pyrazine-6-carboxamide] | 200 to 2000 |
| Cc1ccc2c(N)c(C(=O)N[C@H]3CCc4nc(N5CC6CCC(C5)N6)ccc4C3)sc2n1 [Example 23-12, 3-amino-N-[(6S)-2-{3,8-diazabicyclo[3.2.1]octan-3-yl}-5,6,7,8-tetrahydroquinolin-6-yl]-6-methylthieno[2,3-b]pyridine-2-carboxamide] | 1 to 50 |
| Cc1cnc2c(N)c(C(=O)N[C@H]3CCc4nc(N5CC6CCC(C5)N6)ccc4C3)sc2n1 [Example 23-13, 7-amino-N-{(6S)-2-{3,8-diazabicyclo[3.2.1]octan-3-yl}-5,6,7,8-tetrahydroquinolin-6-yl]-3-methylthieno[2,3-b]pyrazine-6-carboxamide] | 1 to 50 |
| Cc1cc(C)c2c(N)c(C(=O)N[C@H]3CCc4nc(N5CCNCC5)ccc4C3)sc2n1 [Example 23-14, 3-amino-4,6-dimethyl-N-[(6S)-2-(piperazin-1-yl)-5,6,7,8-tetrahydroquinolin-6-yl]thieno[2,3-b]pyridine-2-carboxamide] | 1 to 50 |
| Cc1ccc2c(N)c(C(=O)N[C@H]3CCc4nc(N5CCNCC5)cc(F)c4C3)sc2n1 [Example 23-17, 3-amino-N-[(6S)-4-fluoro-2-(piperazin-1-yl)-5,6,7,8-tetrahydroquinolin-6-yl]-6-methylthieno[2,3-b]pyridine-2-carboxamide] | 1 to 50 |
| Cc1ccc2c(N)c(C(=O)N[C@H]3CCc4nc(N5CC6CCC(C5)N6)cc(F)c4C3)sc2n1 [Example 23-18, N-((6S)-2-(3,8-diazabicyclo[3.2.1]octan-3-yl)-4-fluoro-5,6,7,8-tetrahydroquinolin-6-yl)-3-amino-6-methylthieno[2,3-b]pyridine-2-carboxamide] | 1 to 50 |
| Cc1ccc2c(N)c(C(=O)N[C@H]3CCc4nc(N5C[C@@H](N)[C@H](C(F)F)C5)ccc4C3)sc2n1 [Example 25, 3-Amino-N-[(6S)-2-[(3S,4R)-3-amino-4-(difluoromethyl)pyrrolidin-1-yl]-5,6,7,8-tetrahydroquinolin-6-yl]-6-methylthieno[2,3-b]pyridine-2-carboxamide] | 50 to 200 |
| Cc1ccc2c(N)c(C(=O)N[C@H]3COc4cc(C5(C#N)CCS(=O)(=O)CC5)ccc4C3)sc2n1 [Example 34, 3-amino-N-[(3R)-7-(4-cyano-1,1-dioxo-1λ6-thian-4-yl)-3,4-dihydro-2H-1-benzopyran-3-yl]-6-methylthieno[2,3-b]pyridine-2-carboxamide] | 1 to 50 |
| Cc1ccc2c(N)c(C(=O)N[C@H]3COc4c(F)c(N5CCNCC5)c(F)c(F)c4C3)sc2n1 [Example 35, 3-amino-6-methyl-N-[(3R)-5,6,8-trifluoro-7-(piperazin-1-yl)-3,4-dihydro-2H-1-benzopyran-3-yl]thieno[2,3-b]pyridine-2-carboxamide] | 1 to 50 |
| CCc1cnc2sc(C(=O)N[C@H]3COc4cc(N5CCNCC5)ccc4C3)c(N)c2n1 [Example 36, (R)-7-amino-2-ethyl-N-(7-(piperazin-1-yl)chroman-3-yl)thieno[2,3-b]pyrazine-6-carboxamide] | 200 to 2000 |
| CCc1cnc2sc(C(=O)N[C@@H]3COc4cc(N5CCNCC5)ccc4C3)c(N)c2n1 [Example 37, (S)-7-amino-2-ethyl-N-(7-(piperazin-1-yl)chroman-3-yl)thieno[2,3-b]pyrazine-6-carboxamide] | > 2000 |
| O=C(N[C@H]1COc2cc(N3CCNCC3)ccc2C1)c1cnc2c(ccn2C(F)F)c1 [Example 38, (R)-1-(difluoromethyl)-N-(7-(piperazin-1-yl)chroman-3-yl)-1H-pyrrolo[2,3-b]pyridine-5-carboxamide] | 200 to 2000 |
| O=C(N[C@@H]1COc2cc(N3CCNCC3)ccc2C1)c1cnc2c(ccn2C(F)F)c1 [Example 39, (S)-1-(difluoromethyl)-N-(7-(piperazin-1-yl)chroman-3-yl)-1H-pyrrolo[2,3-b]pyridine-5-carboxamide] | > 2000 |
| Cc1ccc2c(N)c(C(=O)N[C@H]3COc4cc(N5C[C@H]6CNC[C@@H]6C5)ccc4C3)sc2n1 [Example 43, 3-amino-N-((R)-7-((3aR,6aR)-hexahydropyrrolo[3,4-c]pyrrol-2(1H)-yl)chroman-3-yl)-6-methylthieno[2,3-b]pyridine-2-carboxamide] | 200 to 2000 |
